{
  "source": "patent US6433012B1",
  "about": "“Method for inhibiting inflammatory disease” (Large Scale Biology Corp., priority 1998, dated 2002)",
  "tested_on": "corneal neovascularization induced by bFGF",
  "assay": "Rat corneal neovascularization assay",
  "assay_type": "in vivo, Fischer 344 rats",
  "parameters": "total vascular area: unit not given here",
  "details": "oral gavage 500 mg/kg twice a day for 6 days",
  "description": "Hydron polymer (Interferon Sciences, New Brunswick, N.J.) was dissolved in ethanol to a concentration of 12% (W/V). A 1:1 mixture of 12% Hydron and bFGF/Sucralfate/PBS suspension was made as a casting solution and 3 μl of this solution was pipetted onto a sterile Teflon sheet and allowed to dry overnight at 4° C. Each dried pellet contained 50 ng of bFGF and 20 μg of Sucralfate. Female Fischer 344 rats (16 animals, 8-10 weeks old at an approximate weight of 150 g; Charles River, Raleigh, N.C.) were used for this study. Animals were kept in temperature-controlled rooms (24° C.) on a 12-h light-dark cycle with access to rat chow and tap water ad libitum. Following anesthesia with sodium pentobarbital given i.p. at 50 mg/kg body weight, a rat was placed under a dissecting microscope and a drop of Ophthaine was applied on the cornea of one eye. The eye was proptosed by stretching sutures on the upper and lower eyelids. A small superficial incision was made through the cornea center and a micropocket was created by separating the lamella of the stroma toward the limbus with a modified iris spatula. The distance between the bottom of the micropocket and the limbus was about 1 mm. A prepared sterile Hydron pellet was rehydrated with a drop of sterile saline and placed into the corneal micropocket. The cornea was covered with gentamycin ophthalmic ointment (Alleran, Inc., Irvine, Calif.) after surgery. Rats were randomly divided into treated and control groups. […] The drug was administrated by oral gavage at a dose of 500 mg/kg body weight, twice a day for 6 days beginning from the first postoperative day. The controls received vehicle only, and body weights of all animals were monitored and recorded daily. On the seventh postoperative day, animals were anesthetized with nembutal (50 mg/kg) and the thoracic aorta was rapidly cannulated in a retrograde fashion with PE 100 tubing. An incision was made in the right auricle for drainage of blood and saline during flushing and 40-60 mL of saline was injected via the tubing to wash out the blood from the vessels in the upper part of the body until the eyes, ears and nose became pale. Then 10 mL of Higgins waterproof Indian ink (Sanford, Bellwood, Ill.) was injected via the tubing to visualize corneal vessels. The eyes were enucleated, fixed in 10% neutralized formaldehyde buffer, and the corneas were dissected and mounted on slides. Slide-mounted corneal images were taken by using a Carl Zeiss MPS intravital microscope (Carl Zeiss, Hanover, Md.) with a camera connected to a PC equipped with Scion Image software and a frame grabber (Scion Corporation, Frederick, Md.).\nFor the quantitative analysis of corneal neovascularization, various parameters of the corneal images were measured by an investigator who was unaware of the treatment protocol. The shortest distance between the implanted pellet and the limbus was marked as the midline and was measured. The arc along the limbus for the entire vascularized area was drawn and the length of the arc was measured. The circumference of this area was calculated by using the following equation: Circumference (in clock hours)=Arc length×360/πD/30, where D is the corneal diameter. The marked arc was evenly divided into six sections, distances between vessel tips and the limbus at the five intersection points of the arc were measured, and the average vessel length was calculated. The perpendicular distance between the tip of the longest vessel and the limbus (longest vessel length) was also measured. To measure the percent vascular volume (i.e., the vascular volume density), three circles with a diameter of 100 pixels were located between the pellet and the limbus on the midline in the second and the fifth sections, respectively. The total area of each circle (Area-T) and the area for vessels in each circle (total black pixels) were measured (Area-V). […]",
  "data": [
    {"molecule": "COC(=O)c1cc(I)c(Oc2ccc(OC)cc2)c(I)c1", "note": "[BTO-956, methyl-3,5-diiodo-4-(4′-methoxyphenoxy)benzoate]", "values": [
      {"measurement": "body weight loss or behavioral changes", "value": "No significant body weight loss or behavioral changes"},
      {"measurement": "average vessel length", "setting": "mean ± SEM", "value": "0.42±0.07", "unit": "mm"},
      {"measurement": "circumference of corneal neovascularization", "setting": "mean ± SEM", "value": "1.74±0.11", "unit": "clock hours"},
      {"measurement": "maximum vessel length", "setting": "mean ± SEM", "value": "0.76±0.09", "unit": "mm"},
      {"measurement": "total vascular area", "setting": "mean ± SEM", "value": "1.52±0.27"},
      {"measurement": "vascular volume density", "setting": "mean ± SEM", "value": "0.037±0.01"},
      {"measurement": "reduction of average vessel length relative to controls", "setting": "p<0.001", "value": 50, "unit": "%"},
      {"measurement": "decrease of total vascular area compared with controls", "setting": "p<0.01", "value": 65, "unit": "%"},
      {"measurement": "decrease of vascular volume density compared with controls", "setting": "p<0.01", "value": 84.5, "unit": "%"},
      {"measurement": "reduction of circumference of neovascularization compared with controls", "setting": "p<0.01", "value": 45, "unit": "%"},
      {"measurement": "reduction of maximum vessel length relative to controls", "setting": "p<0.01", "value": 38, "unit": "%"}
    ]}
  ]
}
